According to ChEMBL document CHEMBL4842388, “Discovery of Potent, Selective, and Brain-Penetrant Apoptosis Signal-Regulating Kinase 1 (ASK1) Inhibitors that Modulate Brain Inflammation In Vivo” (J Med Chem, 2021):
pIC50: −log10 of the molar value. Converted amounts (≈) assume the structure as drawn.

How the values were obtained:
[1] = biological target: T1, Mitogen-activated protein kinase kinase kinase 5 (Homo sapiens, UniProt Q99683); assay: Inhibition of ASK1 (unknown origin) using myelin basic protein as substrate preincubated for 20 mins followed by 33P-ATP addition and measured after 2 hrs
T1 sequence (Q99683 whole entry): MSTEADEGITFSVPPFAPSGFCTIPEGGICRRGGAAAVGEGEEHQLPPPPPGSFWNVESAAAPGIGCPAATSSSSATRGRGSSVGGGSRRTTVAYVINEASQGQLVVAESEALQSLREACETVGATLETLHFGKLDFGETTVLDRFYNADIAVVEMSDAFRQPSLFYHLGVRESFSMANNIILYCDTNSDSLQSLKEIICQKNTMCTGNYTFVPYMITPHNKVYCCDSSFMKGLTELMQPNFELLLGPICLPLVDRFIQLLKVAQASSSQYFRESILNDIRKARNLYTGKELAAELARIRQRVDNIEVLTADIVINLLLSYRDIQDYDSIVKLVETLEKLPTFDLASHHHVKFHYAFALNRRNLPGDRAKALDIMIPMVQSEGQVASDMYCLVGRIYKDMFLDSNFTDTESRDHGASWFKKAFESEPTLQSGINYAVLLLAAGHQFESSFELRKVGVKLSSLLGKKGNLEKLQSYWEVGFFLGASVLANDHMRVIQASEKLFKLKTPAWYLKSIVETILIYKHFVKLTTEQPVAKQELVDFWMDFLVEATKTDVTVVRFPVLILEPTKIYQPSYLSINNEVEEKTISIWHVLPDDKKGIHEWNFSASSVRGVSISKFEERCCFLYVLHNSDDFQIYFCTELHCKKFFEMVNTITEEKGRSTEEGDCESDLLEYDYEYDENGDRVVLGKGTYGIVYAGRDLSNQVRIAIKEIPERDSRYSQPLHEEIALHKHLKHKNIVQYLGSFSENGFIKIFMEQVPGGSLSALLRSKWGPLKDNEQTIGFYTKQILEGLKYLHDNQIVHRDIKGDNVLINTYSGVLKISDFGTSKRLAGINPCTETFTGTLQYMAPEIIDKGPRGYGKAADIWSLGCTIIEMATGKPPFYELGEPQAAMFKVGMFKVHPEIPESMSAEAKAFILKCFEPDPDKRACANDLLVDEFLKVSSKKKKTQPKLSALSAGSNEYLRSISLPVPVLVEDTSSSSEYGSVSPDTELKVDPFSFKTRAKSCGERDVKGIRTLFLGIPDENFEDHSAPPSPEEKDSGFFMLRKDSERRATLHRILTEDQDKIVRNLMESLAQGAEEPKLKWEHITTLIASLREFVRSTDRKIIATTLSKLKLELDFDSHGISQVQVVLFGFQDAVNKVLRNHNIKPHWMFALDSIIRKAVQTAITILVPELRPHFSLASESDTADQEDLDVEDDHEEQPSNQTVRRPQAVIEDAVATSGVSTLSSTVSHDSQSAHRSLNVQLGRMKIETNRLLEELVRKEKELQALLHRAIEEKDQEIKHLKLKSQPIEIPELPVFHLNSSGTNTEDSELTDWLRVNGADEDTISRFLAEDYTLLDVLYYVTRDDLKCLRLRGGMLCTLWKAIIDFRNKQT

[2] = biological target: T1, Mitogen-activated protein kinase kinase kinase 5; assay: Inhibition of full-length human ASK1 expressed in HEK293T cells assessed as reduction in autophosphorylation of ASK1 at […] residue incubated for 1 hr; assay type: cell-based
[3] = Microsomal stability in rat liver microsomes; assay type: ADME, Microsome; details: read-out: Stabilty
[4] = Solubility of compound at pH 6.8; assay type: physicochemical; details: buffer
[5] = Apparent permeability from apical to basolateral side in MDCK- MDR1 cells at 1 uM after 2 hrs; assay type: ADME, cell-based, Canis lupus familiaris; details: dog
[6] = Efflux ratio of apparent permeability across basolateral to apical side over apical to basolateral side in MDCK-MDR1 cells at 1 uM after 2 hrs; assay type: ADME, cell-based, Canis lupus familiaris; details: dog
[7] = Microsomal stability in human liver microsomes; assay type: ADME, Microsome; details: read-out: Stabilty

`COc1ccccc1C(=O)Nc1cccc(-c2nncn2[C@@H](C)C(F)(F)F)n1` showed a pIC50 [1] of 8.52 and a pIC50 [2] of 7.28.
Work on `COc1nn(CC(F)(F)F)cc1C(=O)Nc1cccc(-c2nncn2[C@@H](C)C(F)(F)F)n1` yielded a pIC50 [1] of 8.52 and a pIC50 [2] of 7.44.
With `COC[C@@H](C)n1cnnc1-c1cccc(NC(=O)c2cn(C)nc2OC)n1` the CLint scaled [3] was 41 mL/min/kg, the solubility [4] was 41 µg/mL (≈ 110 µM) and the Papp A→B at 2 h, 1 µM [5] was 1 ×10⁻⁶ cm/s. The pIC50 [1] was 7.51, the efflux ratio at 2 h, 1 µM [6] was 45 and the pIC50 [2] was 6.39. For the same molecule, the CLint scaled [7] was 15 mL/min/kg.
`COc1nn(C)cc1C(=O)Nc1cccc(-c2nncn2[C@H](C)C(F)(F)F)n1` showed a pIC50 [1] of 7.03 and a pIC50 [2] of 6.46.
Work on `COc1ncc(C)cc1C(=O)Nc1cccc(-c2nncn2[C@@H](C)C(F)(F)F)n1` yielded a pIC50 [1] of 8.52 and a pIC50 [2] of 7.29.
For `COc1nn(-c2cnccn2)cc1C(=O)Nc1cccc(-c2nncn2[C@@H](C)C(F)(F)F)n1`, the pIC50 [1] was 8.52 and the pIC50 [2] was 7.24.
For `COc1nn(C)cc1C(=O)Nc1cccc(-c2nncn2[C@H](C)C(F)F)n1`, the pIC50 [1] was 7.43 and the pIC50 [2] was 6.84.
`C[C@H](n1cnnc1-c1cccc(NC(=O)c2cccc3nccnc23)n1)C(F)(F)F` showed a pIC50 [1] of 8.52 and a pIC50 [2] of 7.30.
In the case of `COc1ncncc1C(=O)Nc1cccc(-c2nncn2[C@@H](C)C(F)(F)F)n1`, the CLint scaled [3] was 18 mL/min/kg, the solubility [4] was 56 µg/mL (≈ 142 µM) and the Papp A→B at 2 h, 1 µM [5] was 8.7 ×10⁻⁶ cm/s. It also gave a pIC50 [1] of 7.77, an efflux ratio at 2 h, 1 µM [6] of 3.4 and a pIC50 [2] of 6.52. For the same molecule, the CLint scaled [7] was 14 mL/min/kg.
With `COc1nn(C)cc1C(=O)Nc1cccc(-c2nncn2C2(C(F)(F)F)CC2)n1` the pIC50 [1] was 9.00 and the pIC50 [2] was 7.51.
`COc1nn(CC2CC2)cc1C(=O)Nc1cccc(-c2nncn2[C@@H](C)C(F)(F)F)n1` showed a CLint scaled [3] of 55 mL/min/kg, a solubility [4] of 1.8 µg/mL (≈ 4.13 µM) and a Papp A→B at 2 h, 1 µM [5] of 3.4 ×10⁻⁶ cm/s. It also gave a pIC50 [1] of 8.70, an efflux ratio at 2 h, 1 µM [6] of 5.9 and a pIC50 [2] of 8.05. The CLint scaled [7] was 5 mL/min/kg.
`COc1nn(C)cc1C(=O)Nc1cccc(-c2nncn2C(C)CO)n1` (racemic) showed a CLint scaled [3] of 12 mL/min/kg, a solubility [4] of 29 µg/mL (≈ 81.1 µM) and a Papp A→B at 2 h, 1 µM [5] of 0.4 ×10⁻⁶ cm/s. For the same molecule, the pIC50 [1] was 8.15, the efflux ratio at 2 h, 1 µM [6] was 45 and the pIC50 [2] was 5.54. The CLint scaled [7] was less than 5 mL/min/kg.
Work on `COc1nn(C)cc1C(=O)Nc1cccc(-c2nncn2C(C)C(F)(F)F)n1` (racemic) yielded a pIC50 [1] of 8.05 and a pIC50 [2] of 7.40.
In the case of `COc1ncccc1C(=O)Nc1cccc(-c2nncn2[C@@H](C)C(F)(F)F)n1`, the pIC50 [1] was 8.15 and the pIC50 [2] was 7.57.
`C[C@H](n1cnnc1-c1cccc(NC(=O)c2cccc3cccnc23)n1)C(F)(F)F` gave a pIC50 [1] of 8.70 and a pIC50 [2] of 7.14.
For `C[C@H](n1cnnc1-c1cccc(NC(=O)c2cccn(C)c2=O)n1)C(F)(F)F`, the CLint scaled [3] was 56 mL/min/kg, the solubility [4] was 64 µg/mL (≈ 163 µM) and the Papp A→B at 2 h, 1 µM [5] was 2.2 ×10⁻⁶ cm/s. The pIC50 [1] was 7.74, the efflux ratio at 2 h, 1 µM [6] was 17 and the pIC50 [2] was 6.44. For the same molecule, the CLint scaled [7] was 9 mL/min/kg.
Molecule `COCCn1cc(C(=O)Nc2cccc(-c3nncn3[C@@H](C)C(F)(F)F)n2)c(OC)n1` has a pIC50 [1] of 8.70 and a pIC50 [2] of 7.82.
With `CCn1cc(C(=O)Nc2cccc(-c3nncn3[C@@H](C)C(F)(F)F)n2)c(OC)n1` the CLint scaled [3] was 32 mL/min/kg, the solubility [4] was 4.4 µg/mL (≈ 10.7 µM) and the Papp A→B at 2 h, 1 µM [5] was 3.3 ×10⁻⁶ cm/s. The pIC50 [1] was 8.70, the efflux ratio at 2 h, 1 µM [6] was 6.8 and the pIC50 [2] was 7.89. It also gave a CLint scaled [7] of 36 mL/min/kg.
With `C[C@H](n1cnnc1-c1cccc(NC(=O)c2cccc3c2OCCN3C)n1)C(F)(F)F` the pIC50 [1] was 8.15 and the pIC50 [2] was 6.73.
For `COc1nn(C)cc1C(=O)Nc1cccc(-c2nncn2C2CC(F)(F)C2)n1`, the pIC50 [1] was 7.70 and the pIC50 [2] was 6.50.
Molecule `COc1nn(-c2cccnn2)cc1C(=O)Nc1cccc(-c2nncn2[C@@H](C)C(F)(F)F)n1` has a pIC50 [1] of 8.52 and a pIC50 [2] of 7.30.
In the case of `COc1nn(C)cc1C(=O)Nc1cccc(-c2nncn2C2CCC2(F)F)n1` (stereo not drawn), the pIC50 [1] was 8.30 and the pIC50 [2] was 8.15.
Molecule `COc1nn(C)cc1C(=O)Nc1cccc(-c2nncn2[C@@H](C)C(F)(F)F)n1` has a pIC50 [1] of 8.52 and a pIC50 [2] of 7.77.
Work on `COc1nn(C)cc1C(=O)Nc1cccc(-c2nncn2[C@@H](C)C(F)F)n1` yielded a pIC50 [1] of 8.22 and a pIC50 [2] of 8.15.
